Here are results for 22 compounds from patent US12344597B2, “Alkoxy-substituted pyridinyl derivatives as LPA1 receptor antagonists and their use in the treatment of fibrosis” (IDORSIA PHARMACEUTICALS LTD, priority 2018, dated 2025).

Chain of human LPA1 receptor (Q92633 whole entry, the tested form may be a part): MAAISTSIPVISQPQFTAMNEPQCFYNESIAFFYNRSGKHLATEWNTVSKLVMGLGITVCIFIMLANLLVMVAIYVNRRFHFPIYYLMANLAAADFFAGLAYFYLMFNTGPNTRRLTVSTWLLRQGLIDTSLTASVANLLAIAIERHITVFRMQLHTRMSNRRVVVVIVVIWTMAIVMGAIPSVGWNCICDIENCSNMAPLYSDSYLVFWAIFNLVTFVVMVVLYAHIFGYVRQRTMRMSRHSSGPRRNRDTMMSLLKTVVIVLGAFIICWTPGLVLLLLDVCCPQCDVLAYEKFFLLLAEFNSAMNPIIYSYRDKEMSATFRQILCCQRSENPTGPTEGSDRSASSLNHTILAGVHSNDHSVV

This assay has as its target human LPA1 receptor (Homo sapiens (Human), UniProt Q92633). The experiment in a line: Beta-arrestin recruitment assay to determine IC50 values for human LPAR1. It counts as cell-based. The following applies: antagonist mode, Tango EDG2-bla U2OS cells, LPA 18:1 500 nM final. The method, boiled down:
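Antagonist IC50 = concentration giving 50% inhibition of maximal LPA response. Read-out is beta-lactamase reporter activity after arrestin-protease recruitment in U2OS cells bearing LPA1-TEV-Gal4-VP16 construct; cells pre-incubated 20 h, 37 °C, 5% CO2.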
A general note: Activated receptors often draw arrestin, which recruitment assays turn into a signal.
Turning to `Cc1ccc(NC(=O)C2(c3c(F)cccc3C(C)C)CN(C(=O)CC(C)(C)C(=O)O)C2)c(OC(F)F)n1` [Ex 39-4, 4-(3-((2-(difluoromethoxy)-6-methylpyridin-3-yl)carbamoyl)-3-(2-fluoro-6-isopropylphenyl)azetidin-1-yl)-2,2-dimethyl-4-oxobutanoic acid], the IC50 (as a rule, the concentration at which inhibition is half-maximal) stood at 5 nM.

As to `Cc1ccc(NC(=O)C2(c3ccccc3C(C)C)CN(C(=O)CC3CCC(C(=O)O)CC3)C2)c(OC(F)F)n1` (stereo not shown) [Ex 52, 4-(2-(3-((2-(difluoromethoxy)-6-methylpyridin-3-yl)carbamoyl)-3-(2-isopropylphenyl)azetidin-1-yl)-2-oxoethyl)cyclohexane-1-carboxylic acid], the IC50 was 51 nM.

In turn, `Cc1ccc(NC(=O)C2(c3cc(F)ccc3C(C)C)CNC2)c(OC(F)F)n1` [Ex 37, N-(2-(difluoromethoxy)-6-methylpyridin-3-yl)-3-(5-fluoro-2-isopropylphenyl)azetidine-3-carboxamide] came in with an IC50 of 112 nM.

The compound `CC(C)c1ccccc1C1(C(=O)Nc2cccnc2OC(F)F)CN(c2ncc(C#N)cn2)C1` [Ex 18-25, 1-(5-cyanopyrimidin-2-yl)-N-(2-(difluoromethoxy)pyridin-3-yl)-3-(2-isopropylphenyl)azetidine-3-carboxamide] showed an IC50 of 5 nM.

Turning to `Cc1ccc(NC(=O)C2(c3ccccc3C(C)C)CCN(C(=O)CC(C)(C)C(=O)O)C2)c(OC(F)F)n1` (stereo not shown) [Ex 12-83, 4-(3-((2-(difluoromethoxy)-6-methylpyridin-3-yl)carbamoyl)-3-(2-isopropylphenyl)pyrrolidin-1-yl)-2,2-dimethyl-4-oxobutanoic acid], the IC50 came out at 24 nM.

Compound `COCCN(CC(=O)OC)CC(=O)N1CC(C(=O)Nc2ccc(C)nc2OC(F)F)(c2ccccc2C(C)C)C1` [Ex 54, methyl N-(2-(3-((2-(difluoromethoxy)-6-methylpyridin-3-yl)carbamoyl)-3-(2-isopropylphenyl)azetidin-1-yl)-2-oxoethyl)-N-(2-methoxyethyl)glycinate] displayed an IC50 of 69 nM.

`CCOC(=O)C[C@H](N)C(=O)N1CC(C(=O)Nc2ccc(C)nc2OC(F)F)(c2ccccc2C(C)C)C1` [Ex 12-100, ethyl (S)-3-amino-4-(3-((2-(difluoromethoxy)-6-methylpyridin-3-yl)carbamoyl)-3-(2-isopropylphenyl)azetidin-1-yl)-4-oxobutanoate] displayed an IC50 of 23 nM.

In turn, `O=C(Nc1ncc(Cl)cc1OC(F)F)C1(c2ccccc2C2CCCC2)CNC1` [Ex 76, N-(5-chloro-3-(difluoromethoxy)pyridin-2-yl)-3-(2-cyclopentylphenyl)azetidine-3-carboxamide] had an IC50 of 19 nM.

In the case of `Cc1ccc(NC(=O)C2(c3ccccc3C(C)C)CN(C(=O)[C@H](C)CC(=O)O)C2)c(OC(F)F)n1` [Ex 12-90, (R)-4-(3-((2-(difluoromethoxy)-6-methylpyridin-3-yl)carbamoyl)-3-(2-isopropylphenyl)azetidin-1-yl)-3-methyl-4-oxobutanoic acid], inhibition was half-maximal at 14 nM (IC50).

`Cc1ccc(NC(=O)C2(c3ccccc3C(C)C)CN(C(=O)CC3NCCNC3=O)C2)c(OC(F)F)n1` (stereo not shown) [Ex 12-46, N-(2-(difluoromethoxy)-6-methylpyridin-3-yl)-3-(2-isopropylphenyl)-1-(2-(3-oxopiperazin-2-yl)acetyl)azetidine-3-carboxamide] yielded an IC50 of 556 nM.

Compound `Cc1ccc(NC(=O)C2(c3ccccc3C(C)C)CN(Cc3ccno3)C2)c(OC(F)F)n1` [Ex 11-36, N-(2-(difluoromethoxy)-6-methylpyridin-3-yl)-3-(2-isopropylphenyl)-1-(isoxazol-5-ylmethyl)azetidine-3-carboxamide] yielded an IC50 of 9 nM.

`Cc1ccc(NC(=O)C2(c3ccccc3C(C)C)CN(C(=O)C[C@](C)(O)C(=O)O)C2)c(OC(F)F)n1` [Ex 12-117, (S)-4-(3-((2-(difluoromethoxy)-6-methylpyridin-3-yl)carbamoyl)-3-(2-isopropylphenyl)azetidin-1-yl)-2-hydroxy-2-methyl-4-oxobutanoic acid] showed an IC50 of 7 nM.

As for `CCOC(=O)CN(C)CCN1CC(C(=O)Nc2ccc(C)nc2OC(F)F)(c2ccccc2C(C)C)C1` [Ex 11-81, Ethyl N-(2-(3-((2-(difluoromethoxy)-6-methylpyridin-3-yl)carbamoyl)-3-(2-isopropylphenyl)azetidin-1-yl)ethyl)-N-methylglycinate], the IC50 turned out to be 88 nM.

Consider `COc1cnc(NC(=O)C2(c3ccccc3C(C)C)CN(S(N)(=O)=O)C2)c(OC)c1` [Ex 81-5, N-(3,5-dimethoxypyridin-2-yl)-3-(2-isopropylphenyl)-1-sulfamoylazetidine-3-carboxamide], for which inhibition was half-maximal at 63 nM (IC50).

Consider `CCOC(=O)/C=C/C(=O)N1CC(C(=O)Nc2ccc(C)nc2OC(F)F)(c2ccccc2C(C)C)C1` [Ex 12-74, ethyl (E)-4-(3-((2-(difluoromethoxy)-6-methylpyridin-3-yl)carbamoyl)-3-(2-isopropylphenyl)azetidin-1-yl)-4-oxobut-2-enoate], for which half-maximal inhibition (IC50) required 97 nM.

The compound `Cc1ccc(NC(=O)C2(c3ccccc3C(C)C)CN(C3=NC(=O)CO3)C2)c(OC(F)F)n1` [Ex 19, N-(2-(difluoromethoxy)-6-methylpyridin-3-yl)-3-(2-isopropylphenyl)-1-(4-oxo-4,5-dihydrooxazol-2-yl)azetidine-3-carboxamide] had an IC50 of 4 nM.

With `Cc1ccc(NC(=O)C2(c3ccccc3C3CCOCC3)CN(C(=O)CC(C)(C)C(=O)O)C2)c(OC(F)F)n1` [Ex 31-6, 4-(3-((2-(difluoromethoxy)-6-methylpyridin-3-yl)carbamoyl)-3-(2-(tetrahydro-2H-pyran-4-yl)phenyl)azetidin-1-yl)-2,2-dimethyl-4-oxobutanoic acid], the IC50 was 185 nM.

Compound `Cc1ccc(NC(=O)C2(c3ccccc3C(C)C)CN(C(=O)N3CCOCC3)C2)c(OC(F)F)n1` [Ex 17-27, N-(2-(difluoromethoxy)-6-methylpyridin-3-yl)-3-(2-isopropylphenyl)-1-(morpholine-4-carbonyl)azetidine-3-carboxamide] registered an IC50 of 210 nM.

Consider `Cc1ccc(NC(=O)C2(c3ccccc3C(C)C)CN(C(=O)C3(C(=O)O)CC3)C2)c(OC(F)F)n1` [Ex 12-64, 1-(3-((2-(difluoromethoxy)-6-methylpyridin-3-yl)carbamoyl)-3-(2-isopropylphenyl)azetidine-1-carbonyl)cyclopropane-1-carboxylic acid], for which half-maximal inhibition (IC50) required 19 nM.

For `COC(=O)C(C)(C)CC(=O)N1CC(C(=O)Nc2ncc(Br)cc2OC(F)F)(c2ccccc2C(C)C)C1` [Ex 79-1, Methyl 4-(3-((5-bromo-3-(difluoromethoxy)pyridin-2-yl)carbamoyl)-3-(2-isopropylphenyl)azetidin-1-yl)-2,2-dimethyl-4-oxobutanoate], it took 65 nM to reach half-maximal inhibition (IC50).

`CCOC(=O)C[C@@H](CC(=O)N1CC(C(=O)Nc2ccc(C)nc2OC(F)F)(c2ccccc2C(C)C)C1)OC(C)=O` [Ex 12-104, ethyl (R)-3-acetoxy-5-(3-((2-(difluoromethoxy)-6-methylpyridin-3-yl)carbamoyl)-3-(2-isopropylphenyl)azetidin-1-yl)-5-oxopentanoate] displayed an IC50 of 41 nM.

The compound `Cc1ccc(NC(=O)C2(c3ccccc3C(C)C)CCN(C(=O)Cn3cnnn3)CC2)c(OC(F)F)n1` [Ex 12-20, 1-(2-(1H-tetrazol-1-yl)acetyl)-N-(2-(difluoromethoxy)-6-methylpyridin-3-yl)-4-(2-isopropylphenyl)piperidine-4-carboxamide] displayed a concentration for half-maximal inhibition (IC50) of 2 nM.
